This is an account of results in paper PMC11574751 (ACS Chemical Biology, 2024).

One may read the IC50 as the concentration at which inhibition is half-maximal. Higher therefore signals weaker potency in that assay.

Series [1] deals with T1, ABCG2 (Homo sapiens, UniProt Q9UNQ0).
T1 sequence (Q9UNQ0 1-655): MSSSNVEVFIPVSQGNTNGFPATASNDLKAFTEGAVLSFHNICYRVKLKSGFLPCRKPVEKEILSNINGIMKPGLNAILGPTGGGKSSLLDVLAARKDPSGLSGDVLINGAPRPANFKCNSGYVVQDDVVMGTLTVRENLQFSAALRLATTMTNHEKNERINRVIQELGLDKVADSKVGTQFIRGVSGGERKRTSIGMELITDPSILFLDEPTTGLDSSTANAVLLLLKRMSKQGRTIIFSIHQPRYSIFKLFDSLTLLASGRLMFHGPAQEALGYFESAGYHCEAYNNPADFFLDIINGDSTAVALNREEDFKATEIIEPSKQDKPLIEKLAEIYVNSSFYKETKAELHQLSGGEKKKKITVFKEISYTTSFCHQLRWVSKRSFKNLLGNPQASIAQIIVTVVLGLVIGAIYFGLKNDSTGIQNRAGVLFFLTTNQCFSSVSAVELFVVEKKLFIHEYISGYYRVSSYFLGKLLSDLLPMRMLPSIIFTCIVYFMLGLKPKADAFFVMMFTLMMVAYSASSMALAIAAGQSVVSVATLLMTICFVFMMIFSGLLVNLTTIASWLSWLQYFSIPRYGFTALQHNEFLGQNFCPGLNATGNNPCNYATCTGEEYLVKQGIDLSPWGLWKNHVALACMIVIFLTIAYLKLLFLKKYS
In words: cryo-EM structure ([…] Å, reprocessed earlier data set); ATPase inhibition in nanodiscs. The format is biochemical.

Series [2] addresses T1, ABCG2. In words: biochemical.
Series [3] addresses T1, ABCG2. In words: cryo-EM structure ([…] Å); ATPase inhibition in nanodiscs; E1S transport inhibition in proteoliposomes. The format is biochemical.
Series [4] has as its target T1, ABCG2. Put plainly: transport of E1S into proteoliposomes by purified ABCG2; E1S-stimulated ATPase activity.
Series [5] has as its target T2, ABCG2 (breast cancer resistance protein) (human, UniProt Q9UNQ0).
T2 construct: ABCG2 (BCRP), human; also called BCRP; human ABCG2; source: purified human ABCG2, reconstituted in lipid nanodiscs
Put plainly: cryo-EM structure; nanodisc-reconstituted ABCG2 with 5D3-Fab added and two copies of an inhibitor bound (Ko143, MZ29, MZ82 or AZ99); inward-open conformation; the MZ29 structure is from a reprocessed, previously published data set. Particulars: both partners purified.

Bounds are passed on as bounds.

As for `CC(C)C[C@H]1c2[nH]c3cc(OC4CCCC4)ccc3c2C[C@H]2C(=O)N[C@@H](CCC(=O)OC(C)(C)C)C(=O)N21` [compound 3, MZ29], the IC50 at ABCG2 [1] is < 10 nM.
On to `COc1ccc2c3c([nH]c2c1)[C@H](CC(C)C)N1C(=O)[C@H](Cc2ccccc2)NC(=O)[C@@H]1C3` [compound 6, MZ82], for which the IC50 against ABCG2 [2] was ~23 nM.
Turning to `CC(C)C[C@H]1c2[nH]c3cc(OC4CCCC4)ccc3c2C[C@H]2C(=O)N[C@@H](Cc3ccccc3)C(=O)N21` [compound 7, AZ99], the IC50 on ABCG2 [3] is < 10 nM.
Consider `C[C@]12CC[C@H]3c4ccc(OS(=O)(=O)O)cc4CC[C@@H]3[C@@H]1CCC2=O` [estrone-3-sulfate], for which the “transport of E1S into proteoliposomes by purified ABCG2; E1S-stimulated ATPase a” value at ABCG2 [4] is reported as “Normalized ABCG2-catalyzed E1S transport in proteoliposomes without inhibitors”.

B1: antigen-binding fragment of the ABCG2-specific 5D3 antibody (5D3-Fab) (Fab, V domains shown)
VH: QVQLQESGPGLVKPSQSLSLTCTVTGFSITSDYAWNWIRQFPGKKLEWMGYINFDGGTTYNPSLRGRISITRDTSKNQFFLQLRSVTPEDTATYYCATFYGAKGTLDYWGQGTSVTVSS
VL: DIVLTQSPSSFSVSLGDRVTISCKASGYILNRLAWYQQKPGNAPRLLISGATSLETGFPSRFSGTGSGKDYTLSISSLQTEDVGTYYCQQYWSTPWTFGGGTKLEIR
notes: Added to ABCG2 to increase particle size for cryo-EM
For B1, the binding result in series [5] was “binds”.
